Reference: article PMC2962730 (Journal of neurochemistry, 2010)
Substitutions are numbered along the chain they refer to.

What was measured:
hVAChT C388A = molecular target: T1, hVAChT C388A (Homo sapiens, UniProt Q16572, C388A); assay: [3H]vesamicol saturation binding; settings: pH 7.4
T1 sequence (Q16572 1-532 C388A): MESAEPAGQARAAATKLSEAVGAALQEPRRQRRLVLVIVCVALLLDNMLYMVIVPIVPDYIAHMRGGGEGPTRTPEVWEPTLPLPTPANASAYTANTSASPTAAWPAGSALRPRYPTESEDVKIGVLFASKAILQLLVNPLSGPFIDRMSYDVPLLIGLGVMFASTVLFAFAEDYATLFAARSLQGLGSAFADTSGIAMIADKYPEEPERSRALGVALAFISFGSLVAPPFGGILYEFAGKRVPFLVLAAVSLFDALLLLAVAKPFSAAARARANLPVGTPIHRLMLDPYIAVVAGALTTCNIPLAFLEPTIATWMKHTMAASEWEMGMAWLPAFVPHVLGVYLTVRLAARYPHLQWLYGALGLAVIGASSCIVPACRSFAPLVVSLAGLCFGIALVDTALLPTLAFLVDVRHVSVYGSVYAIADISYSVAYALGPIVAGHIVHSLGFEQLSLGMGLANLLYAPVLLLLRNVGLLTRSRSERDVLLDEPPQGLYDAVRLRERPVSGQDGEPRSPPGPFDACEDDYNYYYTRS

hVAChT C391A = molecular target: T2, hVAChT C391A (Homo sapiens, UniProt Q16572, C391A); assay: [3H]vesamicol saturation binding; settings: pH 7.4
T2 sequence (Q16572 1-532 C391A): T1 sequence (Q16572 1-532 C388A) with A388C, C391A

hVAChT A334F = molecular target: T3, hVAChT A334F (Homo sapiens, UniProt Q16572, A334F); assay: [3H]ACh transport; format: biochemical
T3 sequence (Q16572 1-532 A334F): T1 sequence (Q16572 1-532 C388A) with A334F, A388C

hVAChT F392A = molecular target: T4, hVAChT F392A (Homo sapiens, UniProt Q16572, F392A); assay: [3H]ACh transport; format: biochemical
T4 sequence (Q16572 1-532 F392A): T1 sequence (Q16572 1-532 C388A) with A388C, F392A

hVAChT Y60A = molecular target: T5, hVAChT Y60A (Homo sapiens, UniProt Q16572, Y60A); assay: [3H]ACh transport; format: biochemical
T5 sequence (Q16572 1-532 Y60A): T1 sequence (Q16572 1-532 C388A) with Y60A, A388C

[1] = read-out: KM, Michaelis-Menten constant for ACh transport, pH 7.4

Compound | Bmax, maximal specific [3H]vesamicol binding (VAChT expression level) (hVAChT C388A) [pmol/mg] | Bmax, maximal specific [3H]vesamicol binding (VAChT expression level) (hVAChT C391A) [pmol/mg] | ACh transport rate relative to wild-type (as fast as) (hVAChT A334F; A334F hVAChT vs wild-type) | Vmax/Bmax, ACh transport normalized to Bmax (hVAChT A334F; A334F hVAChT, pH 7.4) [min⁻¹] | Km (hVAChT A334F; read-out: KM, Michaelis-Menten constant for ACh transport, A334F hVAChT, pH 7.4) [µM] | Vmax/Bmax, ACh transport normalized to Bmax (hVAChT F392A; pH 7.4) [min⁻¹] | Km (hVAChT F392A; [1]) [µM] | Vmax/Bmax, ACh transport normalized to Bmax (hVAChT Y60A; pH 7.4) [min⁻¹] | Km (hVAChT Y60A; [1]) [µM]
O[C@@H]1CCCC[C@H]1N1CCC(c2ccccc2)CC1 (racemic) [vesamicol, ( )-trans-2-(4-phenylpiperidino)cyclohexanol] | 59 ± 1 | 34 ± 3 | – | – | – | – | – | – | –
CC(=O)OCC[N+](C)(C)C [ACh, acetylcholine] | – | – | about one-half | 3.6 ± 0.8 | 3000 ± 1300 | 11 ± 1 | 520 ± 110 | 4.7 ± 0.8 | 480 ± 320
